IC50 data for 22 compounds are collected here from patent US8426588B2, “Phenylalanine derivatives” (Ajinomoto Co, Inc., priority 2000, dated 2013).

As a reminder, the IC50 is the concentration at which inhibition is half-maximal.

Each structure is given as a SMILES string.

In assay [1] the target is T1, integrin α4β7 (Homo sapiens, UniProt P13612+P26010).
T1 construct: lymphoma cell strain RPMI-8866 of human B cells, known to express integrin α4β7; endogenous in cells; host or cells: RPMI-8866
T1 sequence (P13612 34-1032): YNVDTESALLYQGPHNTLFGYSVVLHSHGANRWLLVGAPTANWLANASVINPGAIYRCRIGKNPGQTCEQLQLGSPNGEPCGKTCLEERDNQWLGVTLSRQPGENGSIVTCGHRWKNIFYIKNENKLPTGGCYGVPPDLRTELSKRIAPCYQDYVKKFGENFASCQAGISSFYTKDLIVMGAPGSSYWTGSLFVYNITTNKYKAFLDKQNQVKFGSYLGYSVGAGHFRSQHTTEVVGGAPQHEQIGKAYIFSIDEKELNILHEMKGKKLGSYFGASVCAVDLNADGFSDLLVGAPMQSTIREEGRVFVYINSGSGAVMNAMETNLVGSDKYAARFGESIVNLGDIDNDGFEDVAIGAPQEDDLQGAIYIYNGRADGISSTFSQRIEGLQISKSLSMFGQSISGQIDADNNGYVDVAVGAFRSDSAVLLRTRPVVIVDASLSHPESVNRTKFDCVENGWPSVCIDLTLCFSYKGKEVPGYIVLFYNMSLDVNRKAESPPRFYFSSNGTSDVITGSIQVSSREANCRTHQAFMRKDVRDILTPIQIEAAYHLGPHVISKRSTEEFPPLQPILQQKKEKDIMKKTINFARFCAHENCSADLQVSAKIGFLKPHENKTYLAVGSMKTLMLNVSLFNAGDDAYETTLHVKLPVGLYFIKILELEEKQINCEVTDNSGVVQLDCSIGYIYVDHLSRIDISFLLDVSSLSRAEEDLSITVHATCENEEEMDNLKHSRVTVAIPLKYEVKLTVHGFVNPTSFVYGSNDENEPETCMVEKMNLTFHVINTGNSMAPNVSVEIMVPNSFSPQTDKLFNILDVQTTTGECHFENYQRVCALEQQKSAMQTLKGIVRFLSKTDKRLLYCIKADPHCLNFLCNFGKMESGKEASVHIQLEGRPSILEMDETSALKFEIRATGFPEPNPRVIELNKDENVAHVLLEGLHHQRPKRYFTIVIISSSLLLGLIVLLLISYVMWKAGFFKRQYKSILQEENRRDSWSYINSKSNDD
T1 sequence (P26010 20-798): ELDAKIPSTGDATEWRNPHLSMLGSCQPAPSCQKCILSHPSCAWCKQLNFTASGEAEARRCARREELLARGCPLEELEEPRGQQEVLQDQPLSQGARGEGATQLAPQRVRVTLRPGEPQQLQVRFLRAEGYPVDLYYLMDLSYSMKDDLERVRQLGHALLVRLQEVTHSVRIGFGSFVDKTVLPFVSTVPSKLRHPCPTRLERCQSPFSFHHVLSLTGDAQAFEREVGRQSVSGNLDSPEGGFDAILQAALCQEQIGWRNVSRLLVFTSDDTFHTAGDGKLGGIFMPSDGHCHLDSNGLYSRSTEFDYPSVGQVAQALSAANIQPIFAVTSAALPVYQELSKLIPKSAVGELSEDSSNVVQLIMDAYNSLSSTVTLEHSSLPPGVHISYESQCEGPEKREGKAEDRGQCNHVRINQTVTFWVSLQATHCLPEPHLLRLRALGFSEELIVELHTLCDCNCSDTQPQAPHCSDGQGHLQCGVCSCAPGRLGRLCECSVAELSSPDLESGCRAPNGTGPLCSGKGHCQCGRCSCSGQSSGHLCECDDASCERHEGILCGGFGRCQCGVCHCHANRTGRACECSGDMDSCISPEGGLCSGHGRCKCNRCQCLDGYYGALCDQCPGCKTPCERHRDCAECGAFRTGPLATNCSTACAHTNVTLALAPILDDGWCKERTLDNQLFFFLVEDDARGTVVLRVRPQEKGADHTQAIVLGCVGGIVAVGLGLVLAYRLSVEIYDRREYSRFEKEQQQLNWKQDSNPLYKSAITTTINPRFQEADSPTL
As to the kind of experiment: VCAM antagonistic activity (VCAM-1/α4β7 binding assay), RPMI-8866 cells binding to VCAM-1. It is filed as cell-based. The note with it: RPMI-8866 human B lymphoma cells binding to recombinant human VCAM-1; binding buffer with 4 mM MnCl2. How it is done:
VCAM Antagonistic Activity (VCAM-1/α4β7 Binding Assay)
The capacity of a test substance antagonistic to the binding of lymphoma cell strain RPMI-8866 of human B cells, known to express integrin α4β7, to VCAM-1 was determined.
(§1) 100 μl/well of a solution (500 ng/ml) of recombinant human VCAM-1 (R & D systems) solution diluted with buffer A (0.1 M NaHCO3, pH 9.6) was added to a micro titer plate having 96 wells (Nunc Maxisorp). After the incubation at 4° C. overnight, unbound VCAM-1 was removed by washing once with PBS. After completion of the washing, a buffer (buffer B) obtained by diluting Block Ace (Dainippon Pharmaceutical Co., Ltd.) with PBS to ¼ concentration was added in an amount of 150 μl/well. After the incubation at room temperature for 1 hour, buffer B was removed and the plate was washed with PBS once.
RPMI-8866 cells were washed with DMEM twice and incubated in Dulbecco modified Eagle medium containing 10 μg/ml of Calcein-AM (Wako Pure Chemical Industries, Ltd.) (SIGMA, hereinafter referred to as “DMEM”) in dark place at 37° C. for 30 minutes to label with fluorescence. The cells were again suspended in a binding buffer (20 mM HEPES, DMEM containing 0.1% BSA) containing 4 mM of MnCl2.
(§2) 50 μl of a test substance of various concentrations obtained by the dilution with the binding buffer was added to the plate. Immediately thereafter, 50 μl (final volume: 100 μl/well) of the fluorescent RPMI-8866 cells (4×10^6 cells/ml) were added thereto, and they were incubated in dark place at room temperature for 30 minutes. After the shaking on a plate shaker (IKA MTS-4) at 800 rpm for 30 seconds, the solution was immediately removed to remove the unbound cells. The fluorescence quantity of the bound cells remaining in the wells was determined with a fluorescent plate reader (Wallac 1420 ARVO multi-label counter) (filter excitation wave length: 485 nm, emission wave length: 535 nm). The fluorescent strength thus obtained is proportional to the number of RPMI-8866 cells bound to VCAM-1 and remaining on the plate. The binding rate of each test material in various concentrations was determined while the fluorescent strength of the test material-free well was determined to be 100%.

Assay [2] deals with T2, integrin α4β1 (Homo sapiens, UniProt P05556+P13612).
T2 construct: cell strain Jurkat (ATCC TIB-152) of human T cells, known to express integrin α4β1; endogenous in cells; host or cells: Jurkat (ATCC TIB-152)
Description: VCAM antagonist activity (VCAM-1/α4β1 binding assay), Jurkat cells binding to VCAM-1. Type of assay: cell-based. The conditions noted are these: Jurkat human T cells binding to recombinant human VCAM-1; read-out: VCAM antagonistic activity (IC50) α4β1. How it is done: VCAM Antagonist Activity (VCAM-1/α4β1 Binding Assay)
The capacity of a test substance antagonistic to the binding of cell strain Jurkat (ATCC TIB-152) of human T cells, known to express integrin α4β1, to VCAM-1 was determined.
as §1
Jurkat cells were washed with Dulbecco modified Eagle medium (SIGMA, hereinafter referred to as “DMEM”) twice and then incubated in DMEM containing 10 μg/ml of Calcein-AM (Wako Pure Chemical Industries, Ltd.) at 37° C. in dark place for 30 minutes to label with fluorescence. The cells were again suspended in a binding buffer (20 mM HEPES, DMEM containing 0.1% BSA).
as §2, with “Jurkat” for “RPMI-8866”, “1920” for “1420”

T2 sequence (P05556 21-798, one chain of several): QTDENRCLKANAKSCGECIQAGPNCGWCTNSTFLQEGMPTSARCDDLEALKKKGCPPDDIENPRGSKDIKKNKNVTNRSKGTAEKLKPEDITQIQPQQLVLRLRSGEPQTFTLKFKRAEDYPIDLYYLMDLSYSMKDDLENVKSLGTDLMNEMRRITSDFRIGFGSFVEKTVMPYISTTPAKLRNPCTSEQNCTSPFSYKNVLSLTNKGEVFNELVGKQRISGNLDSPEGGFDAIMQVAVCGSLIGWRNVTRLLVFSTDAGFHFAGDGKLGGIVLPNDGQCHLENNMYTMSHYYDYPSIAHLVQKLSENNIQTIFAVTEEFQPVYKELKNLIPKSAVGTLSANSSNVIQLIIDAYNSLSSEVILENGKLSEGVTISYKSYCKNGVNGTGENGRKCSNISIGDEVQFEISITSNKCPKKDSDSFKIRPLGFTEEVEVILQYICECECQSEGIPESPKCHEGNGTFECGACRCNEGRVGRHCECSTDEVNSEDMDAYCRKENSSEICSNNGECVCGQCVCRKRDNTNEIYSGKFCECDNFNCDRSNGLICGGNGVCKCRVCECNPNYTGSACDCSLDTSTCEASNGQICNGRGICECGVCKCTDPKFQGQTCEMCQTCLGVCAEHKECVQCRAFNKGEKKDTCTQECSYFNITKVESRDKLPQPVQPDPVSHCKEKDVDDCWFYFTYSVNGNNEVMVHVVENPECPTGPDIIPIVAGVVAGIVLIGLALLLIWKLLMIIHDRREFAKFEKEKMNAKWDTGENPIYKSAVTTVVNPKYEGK

In the case of `O=C(N[C@@H](Cc1ccc(-n2c(=O)c3cc([N+](=O)[O-])ccc3n(CC3CCCCC3)c2=O)cc1)C(=O)O)c1c(Cl)cccc1Cl` [Example 62], the IC50 turned out to be 45 nM in assay [1] and 1450 nM in assay [2].
The corresponding values for `Cn1c(=O)n(-c2ccc(C[C@H](NC(=O)C3CCCCC3)C(=O)O)cc2)c(=O)c2ccccc21` [Example 12] are 19 nM and 490 nM.
The like results for `O=C(N[C@@H](Cc1ccc(-n2c(=O)c3ccccc3n(Cc3ccc(Cl)cc3)c2=O)cc1)C(=O)O)c1c(Cl)cccc1Cl` [Example 117] were, in that order, 19 nM and 480 nM.
The like results for `O=C(N[C@@H](Cc1ccc(-n2c(=O)[nH]c3cccc(Cl)c3c2=O)cc1)C(=O)O)c1c(Cl)cccc1Cl` [Example 54] were, in that order, 9.8 nM and 71 nM.
With `CCn1c(=O)n(-c2ccc(C[C@H](NC(=O)c3c(Cl)cccc3Cl)C(=O)O)cc2)c(=O)c2ccccc21` [Example 3], the results for the IC50 in assay [1] and in assay [2] were 3.5 nM and 66 nM, respectively.
As to `CSc1nc2ccccc2c(=O)n1-c1ccc(C[C@H](NC(=O)c2c(Cl)cccc2Cl)C(=O)O)cc1` [Example 18], the half-maximal inhibitory concentration (IC50) in assay [1] is 23 nM; in assay [2], 1900 nM.
For `Cn1c(=O)n(-c2ccc(C[C@H](NC(=O)c3c(Cl)cccc3Cl)C(=O)O)cc2)c(=O)c2ccc(F)cc21` [Example 72], the figures for the concentration for half-maximal inhibition (IC50) in assay [1] and in assay [2] were 2.6 nM and 27 nM, respectively.
The like results for `Cn1c(=O)n(-c2ccc(C[C@H](NC(=O)c3c(Cl)cccc3Cl)C(=O)O)cc2)c(=O)c2cc(Cl)cc(Cl)c21` [Example 71] were, in that order, 11 nM and 185 nM.
`Cn1c(=O)n(-c2ccc(C[C@H](NC(=O)c3c(Cl)cccc3Cl)C(=O)O)cc2)c(=O)c2ccc(C(F)(F)F)cc21` [Example 185]: the IC50 stood at 2.7 nM in assay [1] and 12 nM in assay [2].
`O=C(N[C@@H](Cc1ccc(-n2c(=O)[nH]c3c(Cl)cccc3c2=O)cc1)C(=O)O)c1c(Cl)cccc1Cl` [Example 45]: the 50% inhibitory concentration (IC50) in assay [1] stood at 10.2 nM; in assay [2], 340 nM.
The corresponding values for `Cn1c(=O)n(-c2ccc(C[C@H](NC(=O)[C@H]3CC[C@H](C(=O)O)CC3)C(=O)O)cc2)c(=O)c2ccccc21` [Example 13] are 4.5 nM and 220 nM.
The corresponding values for `COc1ccc2c(c1)c(=O)n(-c1ccc(C[C@H](NC(=O)c3c(Cl)cccc3Cl)C(=O)O)cc1)c(=O)n2C` [Example 184] are 3.3 nM and 31 nM.
The like results for `CCOc1nc2cc(F)ccc2c(=O)n1-c1ccc(C[C@H](NC(=O)c2c(Cl)cccc2Cl)C(=O)O)cc1` [Example 95] were, in that order, 1.8 nM and 960 nM.
Take `Cn1c(=O)n(-c2ccc(C[C@H](NC(=O)c3c(Cl)cccc3Cl)C(=O)O)cc2)c(=O)c2cccc(Cl)c21` [Example 182]: the IC50 stood at 6.2 nM in assay [1] and 113 nM in assay [2].
The like results for `CCSc1nc2ccccc2c(=O)n1-c1ccc(C[C@H](NC(=O)c2c(Cl)cccc2Cl)C(=O)O)cc1` [Example 17] were, in that order, 43 nM and 2100 nM.
As for `O=C(O)Cn1c(=O)n(-c2ccc(C[C@H](NC(=O)c3c(Cl)cccc3Cl)C(=O)O)cc2)c(=O)c2ccccc21` [Example 7], the IC50 in assay [1] was 22 nM; in assay [2] it was 110 nM.
In the case of `CC(C)n1c(=O)n(-c2ccc(C[C@H](NC(=O)c3c(Cl)cccc3Cl)C(=O)O)cc2)c(=O)c2cc([N+](=O)[O-])ccc21` [Example 57], the half-inhibitory concentration (IC50) in assay [1] is 29.9 nM; in assay [2] it was 639 nM.
Turning to `COc1cc2[nH]c(=O)n(-c3ccc(C[C@H](NC(=O)c4c(Cl)cccc4Cl)C(=O)O)cc3)c(=O)c2cc1OC` [Example 51], the figures for the IC50 in assay [1] and in assay [2] were 30 nM and 1180 nM, respectively.
The corresponding values for `CCCCc1nc2ccccc2c(=O)n1-c1ccc(C[C@H](NC(=O)c2c(Cl)cccc2Cl)C(=O)O)cc1` [Example 34] are 42 nM and 2210 nM.
On to `O=C(N[C@@H](Cc1ccc(-n2nnc3c(Cl)ccc(Cl)c3c2=O)cc1)C(=O)O)c1c(Cl)cccc1Cl` [Example 81], for which the concentration for half-maximal inhibition (IC50) in assay [1] worked out at 8.6 nM; in assay [2], 72 nM.
The like results for `O=C(N[C@@H](Cc1ccc(-n2c(-c3ccccc3)nc3ccccc3c2=O)cc1)C(=O)O)c1c(Cl)cccc1Cl` [Example 35] were, in that order, 68 nM and 1700 nM.
As to `Cc1cccc2c(=O)n(-c3ccc(C[C@H](NC(=O)c4c(Cl)cccc4Cl)C(=O)O)cc3)c(=O)n(C)c12` [Example 186], the half-inhibitory concentration (IC50) in assay [1] was found to be 4.3 nM; in assay [2], 59 nM.
